Measurements from ChEMBL document CHEMBL1201862, “PubChem BioAssay data set” (2004).
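Grown in 96-well plates, cells were treated for 48 hours with each compound at five concentrations. Insufficient inhibition: endpoint recorded as highest concentration tested. GI50 marks 50% less growth.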 Active and inactive are the calls of the source. Rule as the data show it: active = GI50 up to about 1.1 µM and inactive = higher.

Assays:
Test in all cases: DTP human tumour cell line panel, 48 h
[1] = tested on: HT-29
[2] = tested on: OVCAR-5
[3] = tested on: UACC-257
[4] = tested on: NCI-H23
[5] = tested on: K562
[6] = tested on: HOP-62
[7] = tested on: NCI-H226
[8] = tested on: SK-MEL-5
[9] = tested on: UACC-62
[10] = tested on: SK-MEL-2
[11] = tested on: OVCAR-8
[12] = tested on: CAKI-1
[13] = tested on: SN12C
[14] = tested on: Malme-3M
[15] = tested on: COLO 205
[16] = tested on: HCT-15

Compound	GI50 [1]	GI50 [2]	GI50 [3]	GI50 [4]	GI50 [5]	GI50 [6]	GI50 [7]	GI50 [8]	GI50 [9]	GI50 [10]	GI50 [11]	GI50 [12]	GI50 [13]	GI50 [14]	GI50 [15]	GI50 [16]
O=c1[nH]c(=O)n([C@H]2C[C@@H](CO)[C@@H](O)C2)cc1I	> 100 µM (inactive)	> 100 µM (inactive)	> 100 µM (inactive)	> 100 µM (inactive)	> 100 µM (inactive)	> 100 µM (inactive)	> 100 µM (inactive)	> 100 µM (inactive)	> 100 µM (inactive)	> 100 µM (inactive)	> 100 µM (inactive)	> 100 µM (inactive)	> 100 µM (inactive)	> 100 µM (inactive)	> 100 µM (inactive)	> 100 µM
Cc1ccc(Nc2nc3c(s2)C(=O)c2ccccc2C3=O)c(C)c1	20.9 µM (inactive)	19.8 µM (inactive)	8.13 µM (inactive)	10.1 µM (inactive)	10.9 µM (inactive)	16.5 µM (inactive)	12.1 µM (inactive)	13.1 µM (inactive)	13.8 µM (inactive)	13.7 µM (inactive)	15.7 µM (inactive)	14.2 µM (inactive)	16.9 µM (inactive)	13.6 µM (inactive)	18.9 µM (inactive)	17.5 µM
O=C(O)CCC(=O)Oc1ccc(O)c2c1CCCC2=O	> 100 µM (inactive)	> 100 µM (inactive)	> 100 µM (inactive)	> 100 µM (inactive)	> 100 µM (inactive)	> 100 µM (inactive)	> 100 µM (inactive)	49.8 µM (inactive)	69.7 µM (inactive)	> 100 µM (inactive)	> 100 µM (inactive)	–	> 100 µM (inactive)	> 100 µM (inactive)	> 100 µM (inactive)	> 100 µM
CC1(C)OCC([C@H]2CC23SCCCS3)O1 (stereo not given in full)	> 100 µM (inactive)	> 100 µM (inactive)	> 100 µM (inactive)	> 100 µM (inactive)	> 100 µM (inactive)	> 100 µM (inactive)	> 100 µM (inactive)	> 100 µM (inactive)	> 100 µM (inactive)	> 100 µM (inactive)	> 100 µM (inactive)	> 100 µM (inactive)	> 100 µM (inactive)	> 100 µM (inactive)	> 100 µM (inactive)	> 100 µM
O=C1NC(Cc2ccc(O)cc2)C(=O)N2CCCC12 (stereo not given)	> 100 µM (inactive)	> 100 µM (inactive)	> 100 µM (inactive)	–	> 100 µM (inactive)	> 100 µM (inactive)	> 100 µM (inactive)	> 100 µM (inactive)	> 100 µM (inactive)	> 100 µM (inactive)	> 100 µM (inactive)	> 100 µM (inactive)	> 100 µM (inactive)	> 100 µM (inactive)	> 100 µM (inactive)	> 100 µM
COC(=O)C1=NC(=S)NC(c2ccccc2)C1c1nc2ccccc2s1 (stereo not given)	> 100 µM (inactive)	–	> 100 µM (inactive)	> 100 µM (inactive)	–	> 100 µM (inactive)	> 100 µM (inactive)	> 100 µM (inactive)	> 100 µM (inactive)	> 100 µM (inactive)	> 100 µM (inactive)	> 100 µM (inactive)	> 100 µM (inactive)	> 100 µM (inactive)	> 100 µM (inactive)	> 100 µM
CCCC(=O)N[C@H]1C2C3CC4C5CC(C42)C1(C)C53 (stereo not given in full)	> 100 µM (inactive)	> 100 µM (inactive)	> 100 µM (inactive)	–	> 100 µM (inactive)	> 100 µM (inactive)	> 100 µM (inactive)	> 100 µM (inactive)	> 100 µM (inactive)	> 100 µM (inactive)	–	> 100 µM (inactive)	> 100 µM (inactive)	> 100 µM (inactive)	> 100 µM (inactive)	> 100 µM
N#CC(C#N)=C1NC(=O)C(c2ccccc2)C(=O)N1 (stereo not given)	> 100 µM (inactive)	> 100 µM (inactive)	> 100 µM (inactive)	> 100 µM (inactive)	> 100 µM (inactive)	> 100 µM (inactive)	> 100 µM (inactive)	> 100 µM (inactive)	> 100 µM (inactive)	–	> 100 µM (inactive)	> 100 µM (inactive)	> 100 µM (inactive)	> 100 µM (inactive)	> 100 µM (inactive)	> 100 µM
C[C@]12CCC(=O)C=C1CC[C@@H]1[C@@H]2C(=O)C[C@@]2(C)[C@H]1CC[C@]2(O)C(=O)CO [CORTISONE]	> 100 µM (inactive)	–	–	> 100 µM (inactive)	> 100 µM (inactive)	–	> 100 µM (inactive)	> 100 µM (inactive)	–	> 100 µM (inactive)	> 100 µM (inactive)	> 100 µM (inactive)	> 100 µM (inactive)	> 100 µM (inactive)	> 100 µM (inactive)	> 100 µM
CCOC(=O)C1CC(=O)C=C2CCCCC21 (stereo not given)	> 100 µM (inactive)	> 100 µM (inactive)	> 100 µM (inactive)	> 100 µM (inactive)	> 100 µM (inactive)	> 100 µM (inactive)	–	> 100 µM (inactive)	> 100 µM (inactive)	> 100 µM (inactive)	> 100 µM (inactive)	> 100 µM (inactive)	> 100 µM (inactive)	> 100 µM (inactive)	> 100 µM (inactive)	> 100 µM
Cn1ccnc1CCc1ccc(Cl)cc1Cl	79.4 µM (inactive)	> 100 µM (inactive)	> 100 µM (inactive)	> 100 µM (inactive)	> 100 µM (inactive)	> 100 µM (inactive)	> 100 µM (inactive)	–	> 100 µM (inactive)	> 100 µM (inactive)	> 100 µM (inactive)	> 100 µM (inactive)	> 100 µM (inactive)	> 100 µM (inactive)	> 100 µM (inactive)	> 100 µM
COc1ccc(NC(=O)CC/C(CC(=O)c2ccco2)=N/NC(N)=S)cc1	> 100 µM (inactive)	> 100 µM (inactive)	> 100 µM (inactive)	> 100 µM (inactive)	> 100 µM (inactive)	> 100 µM (inactive)	> 100 µM (inactive)	–	> 100 µM (inactive)	> 100 µM (inactive)	> 100 µM (inactive)	> 100 µM (inactive)	> 100 µM (inactive)	> 100 µM (inactive)	> 100 µM (inactive)	> 100 µM
CC1=C2[C@@H](c3ccccc3)C3C=CC2(c2ccccc23)N(C(=O)Nc2cccc3ccccc23)C1=O (stereo not given in full)	–	> 100 µM (inactive)	> 100 µM (inactive)	> 100 µM (inactive)	> 100 µM (inactive)	> 100 µM (inactive)	–	> 100 µM (inactive)	> 100 µM (inactive)	–	> 100 µM (inactive)	> 100 µM (inactive)	> 100 µM (inactive)	> 100 µM (inactive)	> 100 µM (inactive)	> 100 µM
O=C1NCC2=C1CCC1c3ccccc3CCN21 (stereo not given)	> 100 µM (inactive)	> 100 µM (inactive)	> 100 µM (inactive)	> 100 µM (inactive)	–	–	> 100 µM (inactive)	> 100 µM (inactive)	> 100 µM (inactive)	> 100 µM (inactive)	> 100 µM (inactive)	> 100 µM (inactive)	> 100 µM (inactive)	> 100 µM (inactive)	> 100 µM (inactive)	> 100 µM
